From patent publication US6355627B1, “Branched cyclodextrin clathrate compound of hinokitiols and composition containing the same” (Takasago International Corporation, priority 1999, dated 2002)
Values after ≈ are worked out from the molar mass of the structure shown.

Key:
[1] = system: Corinebacterium xerosis JCM 1324; experiment: Antibacterial test, serial double dilution method (MIC); assay type: cell-based; conditions: Muller-Hilton agar, 37° C., 24 hours; concentration converted into hinokitiol
Description: (§1) The clathrate compound of the present invention and non-clathrate compounds were each subjected to an antibacterial test. Aerobic and anaerobic bacteria used in the test are as follows:
Cx: Corinebacterium xerosis JCM 1324
(§2) The samples used in the antibacterial test are as follows in which butylparabene was used as a control compound. The concentrations of clathrate compounds were all measured by converting into the concentrations of a hinokitiol. Samples of antibacterial agents
(§3) Method: Serial Double Dilution Method
(§4) As for the culture medium, an aqueous solution containing 38 g/l of a Muller-Hilton agar medium (manufactured by DEFCO) was used for aerobic bacteria and an aqueous solution containing 59 g/l of a GAM agar medium (manufactured by Nissui Pharmaceutical Co., Ltd.) for anaerobic bacteria. Each subject compound was added to each corresponding medium in a manner that the concentration of a hinokitiol was 400 μg/ml and diluted according to the serial double dilution method using the same medium. 10 ml of each resulting medium was poured into a plastic Schale with an inside diameter of 90 mm and was solidified. The solidified medium in the Schale was divided. 0.1 ml of a distilled water suspension containing the subject microorganisms (the number of microorganisms: 10^6-10^9/ml) was inoculated into each compartment and incubated at 37° C. for 24 hours. […]

[2] = system: Malassezia furfur IFO 0656; experiment: as above; assay type: cell-based; conditions: Muller-Hilton agar, 37° C., 24 hours, concentration converted into hinokitiol
Description: as §1
Mf: Malassezia furfur IFO 0656
as §2, §3, §4

[3] = system: Staphylococcus epidermidis JCM 2414; experiment: as above; assay type: cell-based; conditions: JCM2414, Muller-Hilton agar, 37° C., 24 hours, concentration converted into hinokitiol
Description: as §1
Se: Staphylococcus epidermidis JCM 2414
as §2, §3, §4

[4] = system: Escherichia coli IFO 3972; experiment: as above; assay type: cell-based; conditions: Muller-Hilton agar, 37° C., 24 hours, concentration converted into hinokitiol
Description: as §1
Ec: Escherichia coli IFO 3972
as §2, §3, §4

[5] = system: Corynebacterium minutissiumum ATCC 23348; experiment: as above; assay type: cell-based; conditions: Muller-Hilton agar, 37° C., 24 hours, concentration converted into hinokitiol
Description: as §1
Cm: Corynebacterium minutissiumum ATCC 23348
as §2, §3, §4

[6] = system: Serratia marcessenes IFO 3736; experiment: as above; assay type: cell-based; conditions: Muller-Hilton agar, 37° C., 24 hours, concentration converted into hinokitiol
Description: as §1
Sm: Serratia marcessenes IFO 3736
as §2, §3, §4

[7] = system: Staphylococcus aureus IAM 1011; experiment: as above; assay type: cell-based; conditions: Muller-Hilton agar, 37° C., 24 hours, concentration converted into hinokitiol
Description: as §1
Sa: Staphylococcus aureus IAM 1011
as §2, §3, §4

[8] = Evaluation of the heat stability (sublimation); assay type: physicochemical; conditions: 1000 mg allowed to stand at 90° C. for 20 hours
Description: The results of the residual weight, sublimation rate (%) and sublimation rate (%) converted into a hinokitiol were shown in Table 4.

[9] = system: Proteus vulgaris IFO 3167; experiment: Antibacterial test, serial double dilution method (MIC); assay type: cell-based; conditions: Muller-Hilton agar, 37° C., 24 hours, concentration converted into hinokitiol
Description: as §1
Pv: Proteus vulgaris IFO 3167
as §2, §3, §4

[10] = Solubility in water at 15° C.; assay type: physicochemical
Procedure: The solubilities of the above various branched CD clathrate compounds prepared in the above examples and reference example in water at 15° C. are shown in Table 1.

Row | SMILES | MIC [1] | MIC ([2]; Malassezia furfur, IFO0656) | MIC [3] | MIC ([4]; Escherichia coli, IFO3972) | MIC ([5]; Corynebacterium, ATCC23348) | MIC ([6]; Serratia, IFO3736) | MIC ([7]; Staphylococcus aureus, IAM1011) | Residual weight [8] | Sublimation rate [8] | MIC ([9]; Proteus vulgaris, IFO3167) | Solubility in water [10] | MIC, Cx [1] | MIC, Mf [2] | MIC, Ec [4] | MIC, Cm [5] | MIC, Sm [6] | MIC, Sa [7] | MIC, Pv [9]
1 | CC(C)c1cccc(=O)c(O)c1 [Hinokitiol] | 50 µg/mL (≈ 304 µM) | 50 µg/mL (≈ 304 µM) | 50 µg/mL (≈ 304 µM) | 50 µg/mL (≈ 304 µM) | 50 µg/mL (≈ 304 µM) | 200 µg/mL (≈ 1220 µM) | 50 µg/mL (≈ 304 µM) | 8 mg | 99.2% | 50 µg/mL (≈ 304 µM) | <0.05% | – | – | – | – | – | – | –
2 | CCCCOC(=O)c1ccc(O)cc1 [Butylparabene] | – | – | – | – | – | – | – | – | – | – | – | 100 µg/mL (≈ 515 µM) | 100 µg/mL (≈ 515 µM) | 400 µg/mL (≈ 2060 µM) | 100 µg/mL (≈ 515 µM) | >400 µg/mL | 100 µg/mL (≈ 515 µM) | 100 µg/mL (≈ 515 µM)
3 | CC(C)c1cccc(=O)c([O-])c1.[Na+] [sodium salt of hinokitiol] | – | – | – | – | – | – | – | 764 mg | 23.6% | – | – | – | – | – | – | – | – | –
